Entries after “also recorded” stand apart in the source; their conditions may differ.
Assays:
microglia [1] = test: Microglial activation 3 days after stereotactic injections of fibrinogen or plasma; assay type: in vivo, mice; settings: 3 days after stereotactic injection; fibrinogen 6-10 mg/ml
Method: FIG. 8 is a bar graph illustrating the quantification of microglial immunoreactivity from mouse brain sections 3 days after stereotactic injections of fibrinogen, ACSF or albumin protein control, or plasma isolated from wt, Fib-l-, Fib_390-396A mice (n=6 mice per condition). The bar graph represents the mean (*P<0.05, **P<0.01, one-way ANOVA).
Higher concentrations of fibrinogen were introduced (6-10 mg/ml), as well as ACSF, albumin, or plasma isolated from wt, Fib-l-, Fib_390-396A mice (n=6 mice per condition).

microglia [2] = test: Acute microglial responses in vivo after injection into the cortex with a glass microelectrode; parameters: species or system Cx3cr1GFPI+ mice
Method: To directly address whether fibrinogen alone was sufficient to trigger acute microglial responses in the CNS, fibrinogen was injected into the cortex of Cx3cr1GFPI+ mice using a glass microelectrode. Control electrodes were also used containing ACSF or albumin (5 mg/ml). Injection of […] of a 3-6 mg/ml fibrinogen solution, which approximates the physiological concentration of fibrinogen in plasma, caused rapid extension of microglial processes toward the tip of the electrode within […] of the injection. The size of the fibrin deposit remains unaltered, and the microglial response to fibrin persists for at least 6 hours.
The levels of microglia were quantified in vivo usingantibodies against IBA-1 (Ahmed Z, supra).

dendritic spines = test: Golgi staining of dendritic spines after stereotactic injection into the cortex; assay type: in vivo; settings: 3 days later, compared to ACSF controls
Description: Fibrinogen injection in the cortex reduces dendritic spine density. Dendritic spines are the major site of excitatory synaptic inputs in the brain (Nimchinsky E A, et al., Annu Rev Physiol. 64:313-353). Novel spine formation and pre-existing spine elimination reflect the structural consequences of dynamic changes in neuronal activity at the cellular level (Grutzendler J & Gan W B (2006) NeuroRx 3(4):489-496; Trachtenberg J T et al., (2002) Nature 420(6917):788-794; Grutzendler J et al. (2002) Nature 420(6917):812-816.). Thus, dynamic changes in spine numbers and morphology are considered the cellular mechanisms underlying memory and learning (Holtmaat A et al. (2006) Nature 441 (7096):979-983). To assess the effect of a local concentration of fibrinogen on spine morphology, we injected fibrinogen by stereotactic injection into the cortex, and the brains were examined 3 days later by Golgi staining. Fibrinogen reduced the density of dendritic spines by 33%, compared to ACSF controls (FIG. 4).

wild-type mice [3] = test: Contextual fear conditioning test after stereotactic injection in the dentate gyrus; assay type: in vivo; settings: single injection 5 μg in dentate gyrus; day 7 post-injection; vs ACSF
Method: To assess the effect of an increase in the local concentration of fibrinogen in a specific region of interest in the brain, mice received a single stereotactic injection of either 5 μg fibrinogen (1 μl of 5 mg/ml fibrinogen) or 1 μl control (ACSF) in the dentate gyrus. The effects on memory retrieval were assessed in the contextual fear conditioning test (Riley C et al., (2012) Expert review of neurotherapeutics 12(3):323-333.). Mice were placed in a novel environment and given a brief foot shock (training day; day 6 post injection). Memory was assessed by placing the mice in the same environment again one day after the training day (testing day, day 7 post-injection) and freezing (anxiety) behavior was recorded. Percentage of freezing is a direct measure of memory retrieval.

[4] = tested on: neurons in the dentate gyrus; test: NeuN and IBA-1 antibody staining of hippocampus after injection in the dentate gyrus; assay type: in vivo, mice; settings: 5 μg in dentate gyrus, day 7 post injection
spinal cord = test: Demyelination and microglia activation after stereotactic injection into the spinal cord; assay type: in vivo, wild-type mice; settings: single injection at physiological concentrations; after 7 days
Description: Either ACSF or fibrinogen was stereotactically injected at physiological concentrations into the spinal cord of wild-type mice (each Group n=3-4). […] The % area for IBA-1 staining indicates a percentage of the mean area of CD3 or IBA-1 immunoreactivity in the predefined area on spinal cord sections.

corpus callosum = test: Demyelination and microglial activation after stereotactic injection into the corpus callosum; assay type: in vivo, mice
Description: Fibrinogen was stereotactically injected at physiological concentrations into the corpus callosum.
The experiment described in Example 4 was repeated using different mouse strains to investigate the possibility that the neuronal damage induced by fibrinogen was limited to mice with particular genetic backgrounds. […] This is particularly significant as in the traditional model for multiple sclerosis, experimental allergic encephalomyelitis (EAE), different strains of mice show varying degrees of susceptibility to EAE. EAE is a T cell-mediated autoimmune disease that can be induced in experimental animals by immunization with myelin antigens. The susceptibility to myelin antigens ranges from highly susceptible SJL/J mice to resistant B10.S mice.

wild-type mice [5] = test: Morris water maze after chronic intracerebroventricular infusion of fibrinogen; assay type: in vivo; settings: ICV infusion 5 mg/ml, 14-day Alzet pump; tested 24 hours after last learning trial; vs ACSF
Method: Fibrinogen was delivered to the central nervous system (CNS) of wild-type mice by ICY. Briefly, fibrinogen (5 mg/ml) or artificial cerebrospinal fluid (ACSF), a control, was infused into the CNS of the mice using 14-day Alzet pumps through a cannula implanted in the right lateral ventricle. The concentration of the fibrinogen solution was selected based on its physiological range in the plasma. Five days after pump implantation, the mice were trained in the Morris water maze and tested after removal of the target platform 24 hours after the last learning trial. […] To control for visual discriminative ability, the same mice located a clearly visible black platform 2 h after the last trial.

Substance: fibrinogen
- microglial activation 3 days after injection (microglia [1]): formed a deposit that is surrounded by microglial processes
- microglial responses (quantification) (microglia [2]; 3-6 mg/ml, compared to ACSF or albumin): robust and statistically significant increase
- persistence of microglial response to fibrin (microglia [2]; 5-10 μl of 3-6 mg/ml solution into cortex): at least 6 hours
- reduction of density of dendritic spines (dendritic spines): 33%
- percentage of freezing (memory retrieval) (wild-type mice [3]): significant decrease; also recorded: impaired memory retrieval
- microglial activation (IBA-1 antibody staining) ([4]; hippocampal tissue): increased microglial activation; also recorded: increase in IBA-1 staining
- NeuN immunoreactivity (neuronal loss) ([4]; hippocampus): dramatic decrease; also recorded: reduction in NeuN staining
- demyelination in the spinal cord (spinal cord): spontaneously induced demyelination
- microglia activation in the spinal cord (IBA-1 staining) (spinal cord): microglia activation
- demyelination in the corpus callosum (corpus callosum; C57BL/6 mice (B6)): significant demyelination
- microglial activation in the corpus callosum (corpus callosum; C57BL/6 mice (B6)): microglial activation
- demyelination in the corpus callosum (corpus callosum; SJL/J mice (SJL)): significant demyelination
- microglial activation in the corpus callosum (corpus callosum; SJL/J mice (SJL)): microglial activation
- time to induction of microglial activation (corpus callosum; corpus callosum injection): ≤ 1 days
- demyelination in the corpus callosum (corpus callosum; single injection at physiological concentrations, after 7 days): induced demyelination
- memory recall (crossings of the target platform, time spent in the target quadrant) (wild-type mice [5]): impaired memory recall

Reference: patent US9669112B2, “Animal model of neuronal injury” (The J. David Gladstone Institutes, priority 2012, dated 2017)
